Converted amounts (≈) assume the structure as drawn.

One assay deals with C6. The experiment in a line: Cytotoxicity against rat C6 cells assessed as cell viability after 24 hrs by MTT assay. The following applies: C6, 24 h. Type of assay: functional, cell-based. For orientation: Tetrazolium dyes change colour on reduction, which living cells bring about.
The nature of assay [1]: Cytotoxicity against mouse RAW264 cells assessed as cell viability after 24 hrs by MTT assay. Type of assay: functional, cell-based.
Setting [2] is: Mus musculus, RAW264.7, 24 h, read-out: IC50.

On to `CC(C)C1=CC(=O)N/C1=C\[C@@H](C)[C@H]1CC[C@H]2C3=CC[C@H]4C[C@H](N)CC[C@]4(C)[C@H]3CC[C@]12C` [PLAKINAMINE G], for which the concentration for half-maximal inhibition (IC50) was 6.8 µg/mL (≈ 15.6 µM) in the assay on C6 and “Not Active” in assay [1] (raw264).

As to `CC1=C(/C=C/[C@@H](C)[C@H]2CC[C@H]3C4=CC[C@H]5[C@H](O)[C@H](N)CC[C@]5(C)[C@H]4CC[C@]23C)CCN(C)C1` [4ALPHA-HYDROXYDEMETHYLPLAKINAMINE B], the IC50 stood at 26.1 µg/mL (≈ 57.7 µM) in the assay with C6 and 16.2 µg/mL (≈ 35.8 µM) in assay [1] (setting [2]).

Regarding `CC1=C(/C=C/[C@@H](C)[C@H]2CC[C@H]3C4=CC[C@H]5C(=O)[C@@H](N(C)C)CC[C@]5(C)[C@H]4CC[C@]23C)CCNC1` [PLAKINAMINE H], the figures for the IC50 (with C6; in assay [1] (setting [2])) were 9 µg/mL (≈ 19.4 µM) and 61 µg/mL (≈ 131 µM), respectively.

As for `CC(C)C1CCNC1C[C@@H](C)[C@H]1CC[C@H]2C3=CC[C@H]4C[C@H](N)CC[C@]4(C)[C@H]3CC[C@]12C` (stereo partly drawn) [TETRAHYDROPLAKINAMINE A], the concentration for half-maximal inhibition (IC50) in the assay on C6 is 1.4 µg/mL (≈ 3.28 µM); in assay [1] (raw264), “Not Active”.

What is called IC50 is the midpoint of a concentration-inhibition curve.

(Values after ChEMBL document CHEMBL1150619, “Minor steroidal alkaloids from the marine sponge Corticium sp” (J Nat Prod, 2002).)
